Results reported in patent publication EP0324130A2, “8-Glycine, 16-X, Des-19-Leucine-Calcitonin” (RORER INTERNATIONAL (OVERSEAS) INC. (a Delaware corporation), priority 1987, dated 1989).
Peptide text beside a SMILES is read from it.

Tested on: serum calcium concentration
Details: rat, in vivo, sc
Procedure: Biological Assay of Calcitonin Analogs in Vivo
The biological potency of 8-glycine, 16-alanine des-19-leucine salmon calcitonin was determined by comparing the reduction of serum calcium concentration which followed administration by graded doses of Gly^8, Ala^16, des-Ley^19-SCT and synthetic salmon calcitonin standard. Rats were divided into four groups of seven animals, and each group was assigned at random to a dose of standard or test solution. Low and high doses were chosen from the linear portion of the dose-response curve. For the salmon calcitonin standard, the values were 0.7 and 2.1 ng. peptide/100 g. […] This does approximates 3 and 9 MU/100 g. […] Peptides were given by subcutaneous injection (0.2 ml/100 g. BW) and blood was withdrawn 1 hour later for serum calcium determination. Sera are processed and analyzed within two hours of collection.

In the case of `CC(C)C[C@H](NC(=O)CNC(=O)[C@@H]1CSSC[C@H](N)C(=O)N[C@@H](CO)C(=O)N[C@@H](CC(N)=O)C(=O)N[C@@H](CC(C)C)C(=O)N[C@@H](CO)C(=O)N[C@@H]([C@@H](C)O)C(=O)N1)C(=O)NCC(=O)N[C@@H](CCCCN)C(=O)N[C@@H](CC(C)C)C(=O)N[C@@H](CO)C(=O)N[C@@H](CCC(N)=O)C(=O)N[C@@H](CCC(=O)O)C(=O)N[C@@H](C)C(=O)N[C@@H](Cc1c[nH]cn1)C(=O)N[C@@H](CCCCN)C(=O)N[C@@H](CCC(N)=O)C(=O)N[C@H](C(=O)N[C@@H](Cc1ccc(O)cc1)C(=O)N1CCC[C@H]1C(=O)N[C@@H](CCCNC(=N)N)C(=O)N[C@H](C(=O)N[C@@H](CC(N)=O)C(=O)N[C@H](C(=O)NCC(=O)N[C@@H](CO)C(=O)NCC(=O)N[C@H](C(=O)N1CCC[C@H]1C(N)=O)[C@@H](C)O)[C@@H](C)O)[C@@H](C)O)[C@@H](C)O` [Gly^8, Ala^16, des-Leu'^9-SCT, [8-Glycine, 16-Alanine, des-19-Leucine] salmon calcitonin] (HELM PEPTIDE1{C.S.N.L.S.T.C.G.L.G.K.L.S.Q.E.A.H.K.Q.T.Y.P.R.T.N.T.G.S.G.T.P.[am]}$PEPTIDE1,PEPTIDE1,1:R3-7:R3$$$V2.0), the biological potency is reported as 2,500 IU/mg.
